# Measurements from publication PMC6030159 (Scientific Reports, 2018).
# Entries after “also recorded” stand apart in the source; their conditions may differ.
# Columns and labels:
# endogenous MYC:MAX = test system: T1, endogenous MYC:MAX; test: Coimmunoprecipitation of MAX with MYC, MDA-MB231 cells; format: cell-based; conditions: 5 μM, 3 hours post treatment
# T1 construct: endogenous in cells; host or cells: MDA-MB231
# Protocol: (§1) These assays were performed essentially as described in[67],[68]. For further information on immunohistochemistry, and on primers and antibodies, see Supplementary Information.
# MYCN:MAX interaction = test system: T2, MYCN:MAX interaction; test: isPLA MYCN:MAX on xenograft tumor tissue; format: in vivo, mouse; conditions: 20 mg/kg i.p. daily, 1–2 weeks, vs vehicle
# T2 construct: from tissue; host or cells: SK-N-DZ xenograft tumour grown in athymic nude mice
# Protocol: isPLA for tumor tissue was performed using 4% formaldehyde fixed paraffin embedded material. The tissue slides were deparaffinized at 65 °C for an hour, rehydrated in 1X Aqua De Par (Biocare Medical) and incubated at 80 °C for 10 min in a pressure chamber (Decloaking Chamber™ Biocare Medical). Slides were soaked in antigen retrieval buffer (10 mM sodium citrate, pH 6.0) and heated in the pressure chamber to 100 °C for 20 minutes, after which the temperature was lowered to 65 °C. Slides were removed from the chamber and cooled down to room temperature. The antigen retrieval buffer was replaced gradually by deionized H2O for 15 min. Slides were placed in blocking buffer (Duolink® isPLA kit) for 1.5 hours at 37 °C followed by an extra blocking step using the Mouse on Mouse (M.O.M.™) basic kit (Vector Laboratories) according to manufacturers’ protocol. isPLA was performed as above.
# The last dose was administered 3 hrs before termination.
# MYCbHLHZip:MAXbHLHZip = molecular target: T3, MYCbHLHZip:MAXbHLHZip (Homo sapiens, UniProt P01106); test: SPR MYC:MAX heterodimer formation assay; format: binding; conditions: 100 nM MYCbHLHZip over immobilized MAXbHLHZip
# T3 construct: 6xHis (N); made in house; host or cells: E. coli BL21 (DE3), pET28a
# T3 sequence (P01106 367-447 limits assumed): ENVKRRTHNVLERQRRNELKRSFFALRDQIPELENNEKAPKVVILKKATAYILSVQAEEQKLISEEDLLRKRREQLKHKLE
# Protocol: The SPR method is a highly sensitive assay to determine the affinity between protein and ligand and to measure the kinetics of the interaction. In the SPR MYC:MAX interaction assay, MAXbHLHZip was covalently attached onto a sensor chip and MYCbHLHZip pre-mixed with compound was injected over the surface and thereafter allowed to dissociate.
# The SPR experiments were performed at 25 °C using a Biacore T200 (GE Healthcare) instrument kindly provided by SciLifeLab Solna. An amino coupling procedure was used to immobilize protein on a CM5 sensor chip (GE Healthcare). Sensorgrams were generated by subtraction of the reference (blank immobilized) surface. All details will be described in Castell et al. (manuscript in preparation). In general, for the MYC:MAX interaction assay, 200–500 RU of MAXbHLHZip was immobilized and 100 nM MYCbHLHZip pre-incubated with compound in PBS supplemented with 0.05% Tween-20 and 1% DMSO was injected with a flow rate of 30 µl/min and allowed to dissociate. MAX was regenerated by injection of PBS buffer supplemented with Urea.
# p53 = test system: p53; design: method as in PMID 19202599; conditions: cited from earlier work
# BSA = test system: T4, BSA; test: SPR binding to BSA; design: species or system bovine
# T4 construct: purchased NanoTemper (included in the MST kit)
# Protocol: The MYC SPR assay was carried out as described above with MYCbHLHZip immobilized to a level of 800–1000 RU. For kinetic binding experiments, a Langmuir 1:1 binding event was applied using the Biacore T200 Evaluation Software 2.0 (GE Healthcare) to determine association (ka) and dissociation (kd) constants of the compound and to calculate affinity (KD) by the formula; KD = kd/ka. Binding responses from equilibrium binding experiments were plotted against compound concentration and KD values were determined at 50% of the theoretical Rmax with the formula Rmax = (MW analyte/MW ligand) × immobilized ligand level on the chip (RU) × stoichiometry (1:1). Same coupling method described above was used to immobilize the control proteins. MAX was immobilized to approximately 2000 RU, MAD to 600 RU, BSA to 1000 RU, p53 to 3000 RU and BCL-XL, to 500 RU.
# MYC/MYCN target genes = test: RT-qPCR of MYC/MYCN target genes in Kelly cells; format: cell-based; conditions: 2.5 μM, 24 hours
# Protocol: as §1
# lung tumor = test system: lung tumor; design: method as in PMID 23824742; conditions: cited from earlier work
# [1] = test system: SK-N-DZ MYCN-amplified neuroblastoma xenograft tumors; test: SK-N-DZ neuroblastoma xenograft tumor model; format: in vivo, mouse; conditions: 20 mg/kg i.p. daily, 1–2 weeks, vs vehicle
# Protocol: The last dose was administered 3 hrs before termination. […]
# Immunohistochemistry. Apoptosis was visualized at the single-cell level on tumor cryosections using the TUNEL method using the In Situ Cell Death Detection Fluorescein-Roche kit and analyzed by fluorescence microscopy. Briefly, tumor cryosections were fixed in 4% paraformaldyde (PFA) and the assay was performed following the instructions from the manufacturer. Negative controls were run using the reagent without the TdT enzyme. Samples were mounted using Vectashield mounting medium (Vector) and DAPI was used as nuclear counterstaining. Cell proliferation and microvascular density (MVD) were evaluated through Ki67 and CD31staining, respectively, on tumor cryosections and detected by immunofluoresence. Visualization and image acquisition was done in a Zeiss microscope, and for panoramic views by a Vectra imaging system. For quantification, areas with positive TUNEL and Ki67 staining were measured using Image J software. For the analysis of MVD, the number of vessel structures per microscopic field was calculated.
# [2] = test system: MYCN-amplified SK-N-DZ neuroblastoma cells; test: Viable/dead cell counting, SK-N-DZ; format: cell-based, human; conditions: 12.5 μM, 24 hours
# Protocol: Cell proliferation assays. […]
# Fluostar (BMG Labtech) in a 96 well plate format. Cell counting was done in 96 well plates with CellTracker Green (ThermoFisher) for 30 min in the incubator, after which DAPI was added for 5 min. Images were taken in the green (FITC) and blue (DAPI) channels using a fluorescence microscope (ImageXpress Micro, Molecular Devices). […]
# (§2) 0.7% agarose. […]
# YFP = test: SPR binding to YFP; conditions: data not shown
# [3] = test system: HO15.19 (MYC knockout) Rat1 fibroblasts; test: WST-1 growth assay, HO15.19 (MYC knockout) Rat1 fibroblasts; format: cell-based, rat
# Protocol: Cell proliferation assays. Cell growth and viability was estimated in triplicates with WST-1
# (Roche) or Resazurin sodium salt (Sigma-Aldrich) assays in medium at 37°C and 5% CO 2 for
# 2 hours after which absorbance or fluorescence, respectively, was measured with an Omega
# Fluostar (BMG Labtech) in a 96 well plate format. […]
# as §2
smiles,measurement,setting,value
CCOc1ccc2nc3cc(/N=N/c4ccc(N)nc4N)ccc3c(N)c2c1 [MYCMI-6],coimmunoprecipitation of endogenous MYC:MAX,endogenous MYC:MAX,reduced the MYC:MAX protein interaction
same,MYCN:MAX interaction in tumors (isPLA),MYCN:MAX interaction,significant reduction
same,IC50,MYCbHLHZip:MAXbHLHZip,3.8 µM
same,concentrations causing increased expression of p53 in cells,p53,≥ 5 µM
same,binding to BSA (SPR),BSA,negligible
same,expression of MYC/MYCN target genes,MYC/MYCN target genes,significantly inhibited
same,lung tumor growth in mouse xenograft model,lung tumor,inhibit lung tumor growth
same,apoptotic areas in tumors (TUNEL),[1],dramatic increase
same,microvascular density (CD31),[1],significantly reduced
same,non-proliferative areas (Ki67),[1],significant increase
same,tumor histology (H&E),[1],signs of necrosis and hemorrhage
same,"cell death and cell number, SK-N-DZ",[2],dramatically increased cell death and reduced cell number; also recorded: killed almost 100%
same,binding to YFP (SPR),YFP,negligible
same,growth of MYC null (HO15.19) cells,[3],did not significantly affect growth
